How the values were obtained:
[1] = molecular target: Adenosine receptor A1 (Homo sapiens) (UniProt P30542); test: PubChem AID 623927; details: Ricerca radioligand binding panel, 10 uM, % inhibition; adenosine A1 binding; stronger effect = higher value
[2] = molecular target: Sodium-dependent dopamine transporter (Homo sapiens) (UniProt Q01959); test: PubChem AID 623927; details: Ricerca radioligand binding panel, 10 uM, % inhibition; dopamine transporter DAT binding; stronger effect = higher value
[3] = molecular target: Voltage-gated inwardly rectifying potassium channel KCNH2 (Homo sapiens) (UniProt Q12809); test: PubChem AID 623927; details: Ricerca radioligand binding panel, 10 uM, % inhibition; hERG channel binding; stronger effect = higher value
[4] = tested on: norepinephrine transporter (NET) [Homo sapiens]; test: PubChem AID 623927; details: Ricerca radioligand binding panel, 10 uM, % inhibition; stronger effect = higher value
[5] = molecular target: Sodium-dependent serotonin transporter (Homo sapiens) (UniProt P31645); test: PubChem AID 623927; details: Ricerca radioligand binding panel, 10 uM, % inhibition; serotonin transporter SERT binding; stronger effect = higher value
PubChem AID 623927 = details: Ricerca radioligand binding panel, 10 uM, % inhibition, stronger effect = higher value
[6] = molecular target: Alpha-1A adrenergic receptor (Homo sapiens) (UniProt P35348); test: PubChem AID 623927; details: Ricerca radioligand binding panel, 10 uM, % inhibition; adrenergic alpha1A binding; stronger effect = higher value
[7] = molecular target: Sigma non-opioid intracellular receptor 1 (Homo sapiens) (UniProt Q99720); test: PubChem AID 623927; details: Ricerca radioligand binding panel, 10 uM, % inhibition; sigma 1 receptor binding; stronger effect = higher value
[8] = molecular target: 5-hydroxytryptamine receptor 1A (Homo sapiens) (UniProt P08908); test: PubChem AID 623927; details: Ricerca radioligand binding panel, 10 uM, % inhibition; serotonin 5-HT1A binding; stronger effect = higher value

SMILES: O=C(Nc1cccc(Cl)c1)c1ccccn1
- inhibition [1]: 17%
- inhibition [2]: 31%
- inhibition [3]: 0%
- inhibition of NET radioligand binding [4]: 80%
- inhibition [5]: 12%
- inhibition (PubChem AID 623927; NMDA agonist site binding): 15%
- inhibition (PubChem AID 623927; NMDA phencyclidine site binding): 15%
- inhibition (PubChem AID 623927; phorbol ester binding): 21%
- inhibition (PubChem AID 623927; rolipram site (PDE4) binding): 17%
- inhibition (PubChem AID 623927; sigma 2 receptor binding): 15%
- inhibition [6]: 16%
- inhibition [7]: 27%
- inhibition [8]: 16%

Reference: PubChem BioAssay AID623927 (Vanderbilt Specialized Chemistry Center, 2012)
